In assay [1] the target is T1, human NMB receptor (BB1) (Homo sapiens, UniProt P28336).
T1 construct: expressed in transfected cells; membranes prepared from the cells
Nature of the assay: BB1 binding assay ([125I][Tyr4]bombesin displacement, CHO-K1 membranes). Summed up:
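Competition against <0.1 nM [125I][Tyr4]bombesin, 60 min for the NMB receptor and 90 min for the GRP receptor, using homogenised membranes of human-receptor-expressing CHO-K1 cells in pH 7.4 Tris buffer. Bound label was filtered and gamma-counted, with 1 μM bombesin as nonspecific. Ki values came from IC50 via Cheng-Prusoff.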

In assay [2] the target is T2, human GRP receptor (BB2) (Homo sapiens, UniProt P30550).
T2 construct: expressed in transfected cells; membranes prepared from the cells
T2 sequence (P30550 whole entry): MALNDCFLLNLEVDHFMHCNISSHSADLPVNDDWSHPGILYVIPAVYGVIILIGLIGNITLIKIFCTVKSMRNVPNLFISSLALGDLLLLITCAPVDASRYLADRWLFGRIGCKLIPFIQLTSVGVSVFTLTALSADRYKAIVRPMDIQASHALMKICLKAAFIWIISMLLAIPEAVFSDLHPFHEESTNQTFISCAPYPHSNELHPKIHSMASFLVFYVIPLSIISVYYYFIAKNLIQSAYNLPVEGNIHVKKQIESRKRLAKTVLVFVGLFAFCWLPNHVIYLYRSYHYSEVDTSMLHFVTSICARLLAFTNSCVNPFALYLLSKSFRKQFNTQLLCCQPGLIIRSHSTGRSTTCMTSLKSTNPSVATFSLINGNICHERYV
Nature of the assay: BB2 binding assay ([125I][Tyr4]bombesin displacement, CHO-K1 membranes). The procedure:
In the following experiments, measurement of BB1 and BB2 binding was as follows. CHO-K1 cells stably expressing cloned human NMB (for (BB1 assay) and GRP receptors (for BB2 assay) were routinely grown in Ham's F12 culture medium supplemented with 10% foetal calf serum and 2 mM glutamine. For binding experiments, cells were harvested by trypsinization, and stored frozen at −70° C. in Ham's F12 culture medium containing 5% DMSO until required. On the day of use, cells were thawed rapidly, diluted with an excess of culture medium, and centrifuged for 5 minutes at 2000 g. Cells were resuspended in 50 mM Tris-HCl assay buffer (pH 7.4 at 21° C., containing 0.02% BSA, 40 μg/mL bacitracin, 2 μg/mL chymostatin, 4 μg/mL leupeptin, and 2 μM phosphoramidon), counted, and polytronned (setting 5, 10 sec) before centrifuging for 10 minutes at 28,000 g. The final pellet was resuspended in assay buffer to a final cell concentration of 1.5×10^5/mL. For binding assays, […] aliquots of membranes were incubated with [^125I][Tyr^4]bombesin (<0.1 nM) in the presence and absence of test compounds (final assay volume 250 μL) for 60 minutes and 90 minutes for NMB and GRP receptors, respectively. Nonspecific binding was defined by 1 μM bombesin. Assays were terminated by rapid filtration under vacuum onto Whatman GF/C filters presoaked in 0.2% PEI for >2 hours, and washed 50 mM Tris-HCl (pH 6.9 at 21° C.; 6×1 mL). Radioactivity bound was determined using a gamma counter.
All competition data was analysed using nonlinear regression utilizing iterative curve-plotting procedures in Prism® (GraphPad Software Inc., San Diego, USA). IC50 values were corrected to Ki values using the Cheng-Prusoff equation (Cheng Y., Prusoff W. H., Biochem. Pharmacol. 22: 3099-3108, 1973). obtained are listed in Table 1.

[3] abbreviates: Table 3, N-acyl derivatives of Intermediate III-7.
The mark [4] stands for this setting: second 'TABLE 4', N-terminal urethane derivatives of Intermediate III-7.
Where [5] appears, read: binding studies to the bombesin receptors.

The structures appear in SMILES notation. Where two headings read alike, the source gives them in different places.

T1 sequence (P28336 whole entry): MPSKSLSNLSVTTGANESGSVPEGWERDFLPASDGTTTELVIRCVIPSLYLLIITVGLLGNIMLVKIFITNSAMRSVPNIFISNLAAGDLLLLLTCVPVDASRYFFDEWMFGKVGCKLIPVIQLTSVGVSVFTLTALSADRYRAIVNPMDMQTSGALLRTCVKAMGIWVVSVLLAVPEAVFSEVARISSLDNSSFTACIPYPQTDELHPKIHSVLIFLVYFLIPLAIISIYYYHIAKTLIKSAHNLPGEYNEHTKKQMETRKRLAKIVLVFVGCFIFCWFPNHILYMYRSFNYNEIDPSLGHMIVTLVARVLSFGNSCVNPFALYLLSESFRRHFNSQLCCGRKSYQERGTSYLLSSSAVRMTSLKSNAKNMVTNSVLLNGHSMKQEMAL

A word on the IC50: it is the concentration that gives 50% inhibition. Low values mean greater potency in that assay, high ones weaker potency in that assay. In the case of `C[C@@](Cc1c[nH]c2ccccc12)(NC(=O)c1ccc2[nH]ccc2c1)C(=O)NCC1(c2ccccn2)CCCCC1` [Example 67, 1H-Indole-5-carboxylic acid {(S)-2-(1H-indol-3-yl)-1-methyl-1-[(1-pyridin-2-yl-cyclohexylmethyl)-carbamoyl]-ethyl}-amide], the results for the IC50 in assay [1] (setting [3]) and in assay [2] (setting [3]) were 1880 nM and greater than 10000 nM, respectively.

For the molecule `C[C@@](Cc1c[nH]c2ccccc12)(NC(=O)Cc1ccccc1F)C(=O)NCC1(c2ccccn2)CCCCC1` [Example 55, (S)-2-[2-(2-Fluoro-phenyl)-ethanoylamino]-3-(1H-indol-3-yl)-2-methyl-N-(1-pyridin-2-yl-cyclohexylmethyl)-propionamide], the IC50 in assay [1] (setting [3]) is 878 nM; in assay [2] (setting [3]), 1550 nM.

`C[C@@](Cc1c[nH]c2ccccc12)(NC(=O)OCc1cccc(C(F)(F)F)c1)C(=O)NCC1(c2ccccn2)CCCCC1` [Example 107, {(S)-2-(1H-Indol-3-yl)-1-methyl-1-[(1-pyridin-2-yl-cyclohexylmethyl)-carbamoyl]-ethyl}-carbamic acid 3-trifluoromethyl-benzyl ester]: the 50% inhibitory concentration (IC50) is 182 nM in assay [1] (setting [4]) and greater than 10000 nM in assay [2] (setting [4]).

For `Cc1cccc(CC(=O)N[C@@](C)(Cc2c[nH]c3ccccc23)C(=O)NCC2(c3ccccn3)CCCCC2)c1` [Example 54, (S)-3-(1H-Indol-3-yl)-2-methyl-N-(1-pyridin-2-yl-cyclohexylmethyl)-2-(2-m-tolyl-ethanoylamino)-propionamide], the figures for the IC50 in assay [1] (setting [3]) and in assay [2] (setting [3]) were 817 nM and greater than 10000 nM, respectively.

On to `C[C@@](Cc1c[nH]c2ccccc12)(NS(=O)(=O)c1cccc2ccccc12)C(=O)NCC1(c2ccccn2)CCCCC1` [Example 115, (S)-3-(1H-indol-3-yl)-2-methyl-2-(naphthalene-1-sulfonylamino)-N-(1-pyridin-2-yl-cyclohexylmethyl)-propionamide], for which the IC50 in assay [1] amounted to 185 nM; in assay [2] it was 1580 nM.

As for `C[C@@](Cc1c[nH]c2ccccc12)(NS(=O)(=O)c1cccc(F)c1)C(=O)NCC1(c2ccccn2)CCCCC1` [Example 126], the IC50 in assay [1] amounted to 407 nM; in assay [2], 2760 nM.

In the case of `C[C@@](Cc1c[nH]c2ccccc12)(NC(=O)c1ccccc1-n1cccc1)C(=O)NCC1(c2ccccn2)CCCCC1` [Example 81, N—{(S)-2-(1H-Indol-3-yl)-1-methyl-1-[(1-pyridin-2-yl-cyclohexylmethyl)-carbamoyl]-ethyl}-2-pyrrol-1-yl-benzamide], the results for the IC50 in assay [1] (setting [3]) and in assay [2] (setting [3]) were 361 nM and greater than 10000 nM, respectively.

Turning to `Cc1ccc(S(=O)(=O)N[C@@](C)(Cc2c[nH]c3ccccc23)C(=O)NCC2(c3ccccn3)CCCCC2)cc1Cl` [Example 158], the IC50 in assay [1] came out at 299 nM; in assay [2], 3940 nM.

On to `Cc1cccc(S(=O)(=O)N[C@@](C)(Cc2c[nH]c3ccccc23)C(=O)NCC2(c3ccccn3)CCCCC2)c1` [Example 131], for which the IC50 in assay [1] worked out at 393 nM; in assay [2] it was 1020 nM.

Consider `C[C@@](Cc1c[nH]c2ccccc12)(NS(=O)(=O)c1ccc(Cl)cc1)C(=O)NCC1(c2ccccn2)CCCCC1` [Example 116], for which the results for the IC50 in assay [1] and in assay [2] were 373 nM and 4390 nM, respectively.

`COc1ccc(C2(CNC(=O)[C@](C)(Cc3c[nH]c4ccccc34)NC(=O)c3cc4ccccc4[nH]3)CCCCC2)nc1` [Example 86, 1H-Indole-2-carboxylic Acid ((S)-2-(1H-indol-3-yl)-1-{[1-(5-methoxy-pyridin-2-yl)-cyclohexylmethyl]-carbamoyl}-1-methyl-ethyl)-amide]: the IC50 in assay [1] (setting [5]) stood at 11 nM; in assay [2] (setting [5]), 119 nM.

With `C[C@@](Cc1c[nH]c2ccccc12)(NC(=O)OCc1cccc(Oc2ccccc2)c1)C(=O)NCC1(c2ccccn2)CCCCC1` [Example 106, {(S)-2-(1H-Indol-3-yl)-1-methyl-1-[(1-pyridin-2-yl-cyclohexylmethyl)-carbamoyl]-ethyl}-carbamic acid 3-phenoxy-benzyl ester], the IC50 in assay [1] (setting [4]) was 1350 nM; in assay [2] (setting [4]), greater than 10000 nM.

As to `CN(C)c1ccc(CC(=O)N[C@@](C)(Cc2c[nH]c3ccccc23)C(=O)NCC2(c3ccccn3)CCCCC2)cc1` [Example 83, (S)-2-[2-(4-Dimethylamino-phenyl)-ethanoylamino]-3-(1H-indol-3-yl)-2-methyl-N-(1-pyridin-2-yl-cyclohexylmethyl)-propionamide], the IC50 in assay [1] (setting [3]) was 2710 nM; in assay [2] (setting [3]), greater than 10000 nM.

Consider `C[C@@](Cc1c[nH]c2ccccc12)(NC(=O)c1ccc2ncsc2c1)C(=O)NCC1(c2ccccn2)CCCCC1` [Example 72, Benzothiazole-6-carboxylic acid {(S)-2-(1H-indol-3-yl)-1-methyl-1-[(1-pyridin-2-yl-cyclohexylmethyl)-carbamoyl]-ethyl}-amide], for which the IC50 came out at 897 nM in assay [1] (setting [3]) and 1490 nM in assay [2] (setting [3]).

As for `C[C@@](Cc1c[nH]c2ccccc12)(NC(=O)c1ccc(S(C)(=O)=O)cc1)C(=O)NCC1(c2ccccn2)CCCCC1` [Example 37, N—{(S)-2-(1H-Indol-3-yl)-1-methyl-1-[(1-pyridin-2-yl-cyclohexylmethyl)-carbamoyl]-ethyl}-4-methanesulfonyl-benzamide], the IC50 is 2270 nM in assay [1] (setting [3]) and greater than 10000 nM in assay [2] (setting [3]).

`COc1ccccc1CC(=O)N[C@@](C)(Cc1c[nH]c2ccccc12)C(=O)NCC1(c2ccccn2)CCCCC1` [Example 85, (S)-3-(1H-Indol-3-yl)-2-[2-(2-methoxy-phenyl)-ethanoylamino]-2-methyl-N-(1-pyridin-2-yl-cyclohexylmethyl)-propionamide]: the IC50 in assay [1] (setting [3]) worked out at 1330 nM; in assay [2] (setting [3]) it was 2480 nM.

For `C[C@@](Cc1c[nH]c2ccccc12)(NC(=O)c1cccs1)C(=O)NCC1(c2ccccn2)CCCCC1` [Example 64, Thiophene-2-carboxylic acid {(S)-2-(1H-indol-3-yl)-1-methyl-1-[(1-pyridin-2-yl-cyclohexylmethyl)-carbamoyl]-ethyl}-amide], the IC50 in assay [1] (setting [3]) was 1440 nM; in assay [2] (setting [3]), greater than 10000 nM.

As to `C[C@@](Cc1c[nH]c2ccccc12)(NC(=O)OCc1ccc(Cl)c(Cl)c1)C(=O)NCC1(c2ccccn2)CCCCC1` [Example 91, {(S)-2-(1H-Indol-3-yl)-1-methyl-1-[(1-pyridin-2-yl-cyclohexylmethyl)-carbamoyl]-ethyl}-carbamic acid 3,4-dichloro-benzyl ester], the IC50 in assay [1] (setting [4]) was 202 nM; in assay [2] (setting [4]), greater than 10000 nM.

Take `C[C@@](Cc1c[nH]c2ccccc12)(NC(=O)c1ccccc1Cl)C(=O)NCC1(c2ccccn2)CCCCC1` [Example 44, 2-Chloro-N—{(S)-2-(1H-indol-3-yl)-1-methyl-1-[(1-pyridin-2-yl-cyclohexyl-methyl)-carbamoyl]-ethyl}-benzamide]: the IC50 is 3230 nM in assay [1] (setting [3]) and greater than 10000 nM in assay [2] (setting [3]).

With `COc1ccc(CC(=O)N[C@@](C)(Cc2c[nH]c3ccccc23)C(=O)NCC2(c3ccccn3)CCCCC2)cc1` [Example 82, (S)-3-(1H-Indol-3-yl)-2-[2-(4-methoxy-phenyl)-ethanoylamino]-2-methyl-N-(1-pyridin-2-yl-cyclohexylmethyl)-propionamide], the IC50 in assay [1] (setting [3]) is 1690 nM; in assay [2] (setting [3]), greater than 10000 nM.

In the case of `COc1ccccc1COC(=O)N[C@@](C)(Cc1c[nH]c2ccccc12)C(=O)NCC1(c2ccccn2)CCCCC1` [Example 100, {(S)-2-(1H-Indol-3-yl)-1-methyl-1-[(1-pyridin-2-yl-cyclohexylmethyl)-carbamoyl]-ethyl}-carbamic acid 2-methoxy-benzyl ester], the IC50 in assay [1] (setting [4]) was 818 nM; in assay [2] (setting [4]), greater than 10000 nM.

`Cc1ccccc1COC(=O)N[C@@](C)(Cc1c[nH]c2ccccc12)C(=O)NCC1(c2ccccn2)CCCCC1` [Example 97, {(S)-2-(1H-Indol-3-yl)-1-methyl-1-[(1-pyridin-2-yl-cyclohexylmethyl)-carbamoyl]-ethyl}-carbamic acid 2-methyl-benzyl ester]: the IC50 was 751 nM in assay [1] (setting [4]) and greater than 10000 nM in assay [2] (setting [4]).

`C[C@@](Cc1c[nH]c2ccccc12)(NC(=O)OCc1cccc([N+](=O)[O-])c1)C(=O)NCC1(c2ccccn2)CCCCC1` [Example 99, {(S)-2-(1H-Indol-3-yl)-1-methyl-1-[(1-pyridin-2-yl-cyclohexylmethyl)-carbamoyl]-ethyl}-carbamic acid 3-nitro-benzyl ester]: the IC50 in assay [1] (setting [4]) stood at 17 nM; in assay [2] (setting [4]), 612 nM.

For the molecule `C[C@@](Cc1c[nH]c2ccccc12)(NC(=O)c1ccncc1)C(=O)NCC1(c2ccccn2)CCCCC1` [Example 58], the results for the IC50 in assay [1] (setting [3]) and in assay [2] (setting [3]) were 1360 nM and greater than 10000 nM, respectively.

Source of the values: patent US20020169101A1, “Treatment of sexual dysfunction” (priority 1999, published 2002).
